Earlier results in patent US12233205B2, “Thermal modulation of an inhalable medicament” (priority 2014, dated 2025).

Settings: administered IV

| Compound | bioavailability |
| --- | --- |
| Nc1nc(NC2CC2)c2ncn([C@H]3C=C[C@@H](CO)C3)c2n1 [Abacavir] | 61-89% |
| Cc1nnc(SCC2=C(C(=O)O)N3C(=O)[C@@H](NC(=O)Cn4cnnn4)[C@H]3SC2)s1 [Cefazolin] | around 78% |
| C[C@@H](O)[C@H]1C(=O)N2C(C(=O)O)=C(S[C@@H]3CN[C@H](C(=O)Nc4cccc(C(=O)O)c4)C3)[C@H](C)[C@H]12 [Ertapenem] | around 90% |
| Gentamicin | around 100% |

Same assay, conditions: administered PO

| Compound | bioavailability |
| --- | --- |
| Nc1nc(NC2CC2)c2ncn([C@H]3C=C[C@@H](CO)C3)c2n1 [Abacavir] | around 83% |
| Nc1nc2c(ncn2COCCO)c(=O)[nH]1 [Acyclovir] | 10-20% |
| NC12CC3CC(CC(C3)C1)C2 [Amantadine] | around 86% |
| CC(=O)Oc1ccccc1C(=O)O [Aspirin] | 61-80% |
| CC[C@H]1OC(=O)[C@H](C)[C@@H](O[C@H]2C[C@@](C)(OC)[C@@H](O)[C@H](C)O2)[C@H](C)[C@@H](O[C@@H]2O[C@H](C)C[C@H](N(C)C)[C@H]2O)[C@](C)(O)C[C@@H](C)CN(C)[C@H](C)[C@@H](O)[C@]1(C)O [Azithromycin] | around 38% |
| [H]/N=C(\N/C(=N/[H])NCCCCCCNC(=N)NC(=N)Nc1ccc(Cl)cc1)Nc1ccc(Cl)cc1 [Chlorhexidine] | around 4% |
| CC[C@H]1OC(=O)[C@H](C)[C@@H](O[C@H]2C[C@@](C)(OC)[C@@H](O)[C@H](C)O2)[C@H](C)[C@@H](O[C@@H]2O[C@H](C)C[C@H](N(C)C)[C@H]2O)[C@](C)(OC)C[C@@H](C)C(=O)[C@H](C)[C@@H](O)[C@]1(C)O [Clarithromycin] | around 55% |
| Nc1nc(O)c2ncn(COC(CO)CO)c2n1 [Ganciclovir] | around 5% |
| CC(C)Cc1ccc(C(C)C(=O)O)cc1 (stereo not shown) [Ibuprofen] | 58-98% |
| NNC(=O)c1ccncc1 [Isoniazid] | around 90% |
| C[C@H]1COc2c(N3CCN(C)CC3)c(F)cc3c(=O)c(C(=O)O)cn1c23 [Levofloxacin] | around 99% |
| CN(C)c1ccc(O)c2c1C[C@H]1C[C@H]3[C@H](N(C)C)C(O)=C(C(N)=O)C(=O)[C@@]3(O)C(O)=C1C2=O [Minocycline] | around 90% |
| CCOc1ccc2ccccc2c1C(=O)N[C@@H]1C(=O)N2[C@@H]1SC(C)(C)[C@@H]2C(=O)O [Nafcillin] | around 50% |
| CN(C)C(=O)Oc1cccc([N+](C)(C)C)c1 [Neostigmine] | 1-2% |
| Cc1ccnc2c1NC(=O)c1cccnc1N2C1CC1 [Nevirapine] | 80-94% |
| CCOC(=O)C1=C[C@@H](OC(CC)CC)[C@H](NC(C)=O)[C@@H](N)C1 [Oseltamivir] | around 75% |
| CNC[C@H](O)c1cccc(O)c1 [Phenylephrine] | around 38% |
| Cc1nnc(C(=O)NC(C)(C)c2nc(C(=O)NCc3ccc(F)cc3)c(O)c(=O)n2C)o1 [Raltegravir] | 20-43% |
| NC(=O)c1ncn([C@@H]2O[C@H](CO)[C@@H](O)[C@H]2O)n1 [Ribavirin] | around 64% |
| CO[C@H]1/C=C/O[C@@]2(C)Oc3c(C)c(O)c4c(O)c(c(/C=N/N5CCN(C)CC5)c(O)c4c3C2=O)NC(=O)/C(C)=C\C=C\[C@H](C)[C@H](O)[C@@H](C)[C@@H](O)[C@@H](C)[C@H](OC(C)=O)[C@@H]1C [Rifampin] | 90-95% |
| COc1cccc(C2(O)CCCCC2CN(C)C)c1 (stereo not shown) [Tramadol] | 75-95% |
| CN[C@H](CC(C)C)C(=O)N[C@H]1C(=O)N[C@@H](CC(N)=O)C(=O)N[C@H]2C(=O)N[C@H]3C(=O)N[C@H](C(=O)N[C@H](C(=O)O)c4cc(O)cc(O)c4-c4cc3ccc4O)[C@H](O)c3ccc(c(Cl)c3)Oc3cc2cc(c3O[C@@H]2O[C@H](CO)[C@@H](O)[C@H](O)[C@H]2O[C@H]2C[C@](C)(N)[C@H](O)[C@H](C)O2)Oc2ccc(cc2Cl)[C@H]1O [Vancomycin] | negligible |
| Gentamicin | negligible |
| Penicillin G, V | 30-80% |

Same assay, conditions: administered PR

| Compound | bioavailability |
| --- | --- |
| CO[C@@]1(NC(=O)Cc2cccs2)C(=O)N2C(C(=O)O)=C(COC(N)=O)CS[C@@H]21 [Cefoxitin] | 7-17% |

Same assay, conditions: administered as a nasal spray

| Compound | bioavailability |
| --- | --- |
| CN1CCCC(n2nc(Cc3ccc(Cl)cc3)c3ccccc3c2=O)CC1 (stereo not shown) [Azelastine] | around 40% |
| CNS(=O)(=O)Cc1ccc2[nH]cc(CCN(C)C)c2c1 [Sumatriptan] | around 25% |

Same assay, conditions: administered as an inhalable

| Compound | bioavailability |
| --- | --- |
| NC[C@H]1O[C@H](O[C@H]2[C@H](O)[C@@H](O[C@H]3O[C@H](CO)[C@@H](O)[C@H](N)[C@H]3O)[C@H](N)C[C@@H]2N)[C@H](N)C[C@@H]1O [Tobramycin] | 1-16.6% |

Same assay, conditions: in vivo, im

| Compound | bioavailability |
| --- | --- |
| CCOC(=O)C1(c2ccccc2)CCN(C)CC1 [Meperidine] | around 57% |

Same assay, conditions: in vivo, inhaled or intranasal

| Compound | bioavailability |
| --- | --- |
| C[C@@H]1C[C@H]2[C@@H]3CCC4=CC(=O)C=C[C@]4(C)[C@@]3(Cl)[C@@H](O)C[C@]2(C)[C@@]1(O)C(=O)CCl [Mometasone] | around 1% |

Same assay, conditions: in vivo, po

| Compound | bioavailability |
| --- | --- |
| CNCC[C@H](Oc1cccc2ccccc12)c1cccs1 [Duloxetine] | 30-80% |
| Cc1ncc2n1-c1ccc(Cl)cc1C(c1ccccc1F)=NC2 [Midazolam] | around 36% |

Same assay, conditions: route not stated

| Compound | bioavailability |
| --- | --- |
| CC(=O)N[C@H]1[C@H]([C@H](O)[C@H](O)CO)OC(C(=O)O)=C[C@@H]1N=C(N)N [Zanamivir] | 4-17% |
